Paper PMC9960821, “Evaluation of Rhenium and Technetium-99m Complexes Bearing Quinazoline Derivatives as Potential EGFR Agents” (Molecules, 2023)

Tests used:
[1] = Cysteine and histidine challenge of 99mTc complexes (RP-HPLC); format: physicochemical
Procedure: (§1) The stability of complexes 5b and 7b was studied in their reaction mixture and after isolation by HPLC for up to 24 h.
Cysteine and histidine challenge: Histidine (100 µL, 1 × 10^−2 M) or cysteine (100 µL, 1 × 10^−2 M) solution in 0.1 M PBS was mixed with 100 µL (50–120 MBq) of the RP-HPLC isolated ^99mTc complexes in 0.1 M PBS (800 µL). The mixtures were incubated at 37 °C for up to 24 h and analyzed by RP-HPLC at 1, 6, and 24 h intervals.

[2] = Stability of 99mTc complexes in reaction mixture and after isolation in PBS (RP-HPLC); format: physicochemical
Procedure: as §1
Stability of ^99mTc complexes in the reaction mixture: Samples of the ^99mTc complexes’ reaction mixture were stored at room temperature for up to 24 h. At 1, 6, and 24 h intervals, 100 μL of each sample was removed and analyzed by RP-HPLC.
Stability of isolated ^99mTc complexes: Purification and isolation of 5b and 7b complexes were performed by injection of the reaction mixture into RP-HPLC and isolation of the eluted compounds’ peaks, corresponding to the elution time of each complex. Followingly, 0.1 M PBS buffer solution (900 µL) was added to a vial containing 100 µL (50–120 MBq) of the isolated technetium-99m complex. The sample was incubated at 37 °C for up to 24 h and analyzed by RP-HPLC at 1, 6, and 24 h intervals.

[3] = Biodistribution in healthy Swiss Albino mice after intravenous injection; format: in vivo; settings: i.v.
Procedure: The pharmacokinetic profile of complexes 5b and 7b was evaluated in Swiss Albino healthy male mice at 5, 60, and 240 min post intravenous injection. Table 4 presents the results of the biodistribution studies expressed as % Injected Dose (ID)/g ± Standard Deviation (±SD). […] The high lipophilicity characterizing both complexes justifies the rapid hepatobiliary excretion, given the decreasing activity in the liver and the increasing amount of radioactivity in the intestines. Complex 5b presented faster clearance and elimination in the intestines at 60 min p.i. 34.05% of the radioactivity excreted, compared to 29.89% at 240 min p.i. of complex 7b. Radioactivity in the urine remained low in general, however, the lower logD7.4 value of complex 7b explains the relatively higher activity in the urines (7.88 ± 0.71%) as it is slightly more hydrophilic than 5b. Moreover, the low uptake in the brain indicates almost no blood-brain barrier penetration, although the complexes have favorable physicochemical characteristics.
All the biodistribution experiments were carried out in compliance with the national laws and European protocols (2010/63/EU) related to the conduct of animal experimentation. Nine healthy Swiss Albino mice (male, 30 ± 3 g), divided into three groups of three, were injected with the HPLC-purified 5b or 7b complex in saline with 10% EtOH (0.1 mL, ~75 kBq) through the tail vein. For each group, the animals were sacrificed by cardiectomy under slight ether anesthesia 5, 60, and 240 min after the injection. The organs of interest were excised, weighed, and counted in an automatic gamma counter. The bladder and excreted urine were not weighed. The stomach and intestines were not emptied of food contents prior to radioactivity measurements. The percentage of injected dose per organ (%ID/organ) was calculated by comparison of sample radioactivity to standard solutions containing 10% of the injected dose. The calculation for blood and muscle was based on measured activity, sample weight, and body composition data (considering that blood and muscle comprise 7 and 43% of body weight). The percentage of injected dose per gram (%ID/g) was calculated by dividing the %ID/organ by the weight of the organ or tissue.

[4] = Lipophilicity, shake-flask distribution coefficient; format: physicochemical; settings: n-octanol/0.1 M phosphate buffer pH 7.4
Procedure: The pharmacokinetic profile of the studied compounds could be affected by their lipophilicity, expressed as the logarithm of the distribution coefficient (log Do/w). The lipophilicity of complexes 5b and 7b was determined in physiological conditions (n-octanol/0.1 M phosphate buffer pH 7.4). […] The presence of the pyridine ring in the chemical structure of complex […] increases the log D7.4 value, as expected.
The distribution coefficient of the 5b and 7b complexes was determined with the shake-flask method. The RP-HPLC isolated ^99mTc complexes (20 μL, ~75 kBq) were mixed with 2 mL of 1-octanol and 2 mL of phosphate buffer solution (PBS, 0.1 M, pH 7.4) in a centrifuge tube. The mixture was vortexed at room temperature for 2 min and centrifuged at 5000 rpm for 10 min. The radioactivity of each phase (200 μL) was counted in a gamma counter. The distribution coefficient was calculated by dividing the cpm/mL in the 1-octanol phase by those in the buffer, and the results were expressed as logD7.4. Each experiment was run in triplicate.

## NC(CSCCCCCC(=O)Nc1ccc2ncnc(Nc3cccc(Br)c3)c2c1)C(=O)[O-].[99Tc+].[C-]#[O+].[C-]#[O+].[C-]#[O+] (stereo not shown) [Compound 7b]
[1]; 24 h, molar ratio 1/1000, HPLC
  Stability after incubation with excess of histidine and cysteine: > 95%
[1]; excess cysteine, 37 °C
  %RCP in Cysteine for 24 h: 95 ± 1%
[1]; excess histidine, 37 °C
  %RCP in Histidine for 24 h: 95 ± 2%
[2]; 0.1 M PBS, 37 °C, 24 h
  %RCP in PBS for 24 h: 99 ± 1%
[2]; up to 24 h, room temperature or 37 °C
  Stability in reaction mixture and after isolation by HPLC: No decomposition
[3]
  In vivo stability (low spleen and stomach radioactivity; no oxidation to pertechnetate/TcO2): stable in vivo
[3]; 5 min
  Blood %Injected Dose/g: 1.06 ± 0.29 %Injected Dose/g
  Brain %Injected Dose/g: 0.06 ± 0.02 %Injected Dose/g
  Heart %Injected Dose/g: 0.97 ± 0.29 %Injected Dose/g
  Intestines %Injected Dose/g: 10.62 ± 1.17 %Injected Dose/g
  Kidneys %Injected Dose/g: 13.04 ± 2.34 %Injected Dose/g
  Liver %Injected Dose/g: 23.33 ± 3.63 %Injected Dose/g
  Lungs %Injected Dose/g: 1.19 ± 0.22 %Injected Dose/g
  Muscle %Injected Dose/g: 0.29 ± 0.11 %Injected Dose/g
  Pancreas %Injected Dose/g: 1.10 ± 0.11 %Injected Dose/g
  Spleen %Injected Dose/g: 0.92 ± 0.32 %Injected Dose/g
  Stomach %Injected Dose/g: 1.04 ± 0.10 %Injected Dose/g
  Urine % ID: 0.08 ± 0.06 % ID
[3]; 60 min
  Blood %Injected Dose/g: 0.30 ± 0.09 %Injected Dose/g
  Brain %Injected Dose/g: 0.02 ± 0.01 %Injected Dose/g
  Heart %Injected Dose/g: 0.18 ± 0.03 %Injected Dose/g
  Intestines %Injected Dose/g: 26.81 ± 1.61 %Injected Dose/g
  Kidneys %Injected Dose/g: 1.94 ± 0.28 %Injected Dose/g
  Liver %Injected Dose/g: 4.88 ± 0.47 %Injected Dose/g
  Lungs %Injected Dose/g: 0.26 ± 0.04 %Injected Dose/g
  Muscle %Injected Dose/g: 0.13 ± 0.12 %Injected Dose/g
  Pancreas %Injected Dose/g: 0.24 ± 0.05 %Injected Dose/g
  Spleen %Injected Dose/g: 0.11 ± 0.02 %Injected Dose/g
  Stomach %Injected Dose/g: 0.97 ± 0.22 %Injected Dose/g
  Urine % ID: 5.83 ± 0.02 % ID
[3]; 240 min
  Blood %Injected Dose/g: 0.18 ± 0.04 %Injected Dose/g
  Brain %Injected Dose/g: 0.07 ± 0.06 %Injected Dose/g
  Heart %Injected Dose/g: 0.12 ± 0.00 %Injected Dose/g
  Intestines %Injected Dose/g: 29.89 ± 2.41 %Injected Dose/g
  Kidneys %Injected Dose/g: 1.12 ± 0.03 %Injected Dose/g
  Liver %Injected Dose/g: 4.46 ± 0.16 %Injected Dose/g
  Lungs %Injected Dose/g: 0.25 ± 0.08 %Injected Dose/g
  Muscle %Injected Dose/g: 0.03 ± 0.00 %Injected Dose/g
  Pancreas %Injected Dose/g: 0.12 ± 0.02 %Injected Dose/g
  Spleen %Injected Dose/g: 0.09 ± 0.02 %Injected Dose/g
  Stomach %Injected Dose/g: 0.96 ± 0.06 %Injected Dose/g
  Urine % ID: 7.88 ± 0.71 % ID
[4]
  log D7.4: 2.87 ± 0.32
